The source of these data is ChEMBL document CHEMBL1158437, “The discovery of the potent aurora inhibitor MK-0457 (VX-680)” (Bioorg Med Chem Lett, 2009).

Values after ≈ are worked out from the molar mass of the structure shown. Active and inactive are the calls of the source. No cut-off for these calls is given here. Where only a bound is given, the exact number is not on record here.

Chain of Glycogen synthase kinase-3 beta (P49841 whole entry): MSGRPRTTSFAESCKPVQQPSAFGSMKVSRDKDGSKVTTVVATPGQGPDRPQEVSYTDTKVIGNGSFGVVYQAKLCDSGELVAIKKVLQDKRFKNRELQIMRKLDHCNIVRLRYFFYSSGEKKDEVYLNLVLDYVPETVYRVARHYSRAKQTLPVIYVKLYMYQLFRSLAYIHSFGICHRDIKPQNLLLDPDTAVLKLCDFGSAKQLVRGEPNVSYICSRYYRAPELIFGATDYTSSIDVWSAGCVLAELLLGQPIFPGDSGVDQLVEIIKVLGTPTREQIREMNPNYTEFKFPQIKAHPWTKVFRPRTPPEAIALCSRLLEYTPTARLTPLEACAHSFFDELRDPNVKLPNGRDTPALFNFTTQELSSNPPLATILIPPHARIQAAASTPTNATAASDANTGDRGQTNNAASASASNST

One data set has as its system COLO 205. The data set is described as follows: Antiproliferative activity against human COLO205 cells by [3H]thymidine uptake assay. It counts as functional, cell-based. Conditions: TDE = time-dependent effect.
Consider `CCC(=O)Nc1ccc(Sc2nc(Nc3cc(C)[nH]n3)cc(N3CCN(C)CC3)n2)cc1`, for which the Activity entry was “tde”.
Same read-out and setting: with `CCC(=O)Nc1ccc(Sc2nc(Nc3cc(C)[nH]n3)cc(N3CCN(C4CC4)CC3)n2)cc1` the entry was “tde”.

System in another data set: not listed separately
The data set is described as follows: Bioavailability in rat. It counts as ADME, organism-based. Conditions: in vivo.
By bioavailability is commonly meant dose-corrected exposure relative to a reference, in per cent. On to `CC(=O)Nc1ccc(Sc2nc(Nc3cc(C)[nH]n3)c3ccccc3n2)cc1`, for which the bioavailability worked out at 40%.

The next data set deals with T1, Aurora kinase C (Homo sapiens, UniProt Q9UQB9).
T1 sequence (Q9UQB9 whole entry): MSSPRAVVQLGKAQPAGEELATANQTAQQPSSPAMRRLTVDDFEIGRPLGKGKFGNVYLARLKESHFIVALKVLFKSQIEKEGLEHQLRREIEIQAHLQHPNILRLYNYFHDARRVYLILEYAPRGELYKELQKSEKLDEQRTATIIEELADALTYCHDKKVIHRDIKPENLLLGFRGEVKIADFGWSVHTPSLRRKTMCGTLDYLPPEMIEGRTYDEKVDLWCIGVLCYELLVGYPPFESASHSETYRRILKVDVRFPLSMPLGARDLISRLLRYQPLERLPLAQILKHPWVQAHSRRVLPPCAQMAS
As to the kind of experiment: Inhibition of Aurora-C.
Conditions: not given
As a reminder, the Ki is the dissociation constant of the complex between target and ligand, obtained from inhibition or displacement. A high value points to lower affinity. As to `CC(=O)Nc1ccc(Sc2nc(Nc3cc(C)[nH]n3)c3ccccc3n2)cc1`, the inhibitory constant (Ki) amounted to 11 nM.

Another data set relates to COLO 205. As to the kind of experiment: Cytotoxicity against human COLO205 cells after 48 hrs by MTS assay. Conditions: COLO 205, 48 h. The class given is functional, cell-based. On the technique in general: Tetrazolium assays rely on reduction of a dye to a coloured formazan, in cell work by metabolically active cells.
One may read the IC50 as the concentration that inhibits the measured activity by half. As to `CC(=O)Nc1ccc(Sc2nc(Nc3cc(C)n[nH]3)c3ccccc3n2)cc1`, the IC50 worked out at 8500 nM.

In a further data set the test system is COLO 205. As to the kind of experiment: Induction of apoptosis in human COLO205 cells by annexin V binding.
Conditions: not given
It counts as functional, cell-based.
Regarding `CC(=O)Nc1ccc(Sc2nc(Nc3cc(C)n[nH]3)c3ccccc3n2)cc1`, the outcome was Active.

Another data set has as its target T2, Aurora kinase A (Homo sapiens, UniProt O14965).
T2 sequence (O14965 whole entry): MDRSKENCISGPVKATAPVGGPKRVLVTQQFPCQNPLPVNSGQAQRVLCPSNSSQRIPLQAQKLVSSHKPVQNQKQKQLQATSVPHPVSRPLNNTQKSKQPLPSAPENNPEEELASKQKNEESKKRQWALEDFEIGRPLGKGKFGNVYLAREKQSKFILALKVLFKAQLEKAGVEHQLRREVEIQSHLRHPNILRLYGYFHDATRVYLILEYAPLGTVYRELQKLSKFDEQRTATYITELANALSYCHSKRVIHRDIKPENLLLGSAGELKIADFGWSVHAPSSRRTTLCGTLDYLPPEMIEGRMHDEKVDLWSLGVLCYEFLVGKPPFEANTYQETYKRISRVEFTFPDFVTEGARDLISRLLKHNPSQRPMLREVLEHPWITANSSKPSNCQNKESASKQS
Conditions: not given
`CCC(=O)Nc1ccc(Sc2nc(Nc3cc(C)n[nH]3)cc(N3CCN(C4CC4)CC3)n2)cc1` showed an inhibition constant Ki below 1 nM.
Same read-out and setting: the value for `Cc1cc(Nc2nc(-c3ccncc3)nc3ccccc23)n[nH]1` was 81 nM; that for `CC(=O)Nc1ccc(Sc2nc(Nc3cc(C)[nH]n3)cc(-c3ccccc3)n2)cc1` was 2.4 nM; that for `CCC(=O)Nc1ccc(Sc2nc(Nc3cc(C)n[nH]3)cc(N3CCOCC3)n2)cc1` was 1.7 nM.
The same measure, in the same setting: with `CCC(=O)Nc1ccc(Sc2nc(Nc3cc(C)n[nH]3)cc(N3CCNCC3)n2)cc1` the figure was 3.7 nM; with `CCC(=O)Nc1ccc(Sc2nc(Nc3cc(C)[nH]n3)cc(N3CCN(C)CC3)n2)cc1`, 1.6 nM.
On the same count and under the same terms, the value for `CCC(=O)Nc1ccc(Sc2nc(Nc3cc(C)n[nH]3)cc(N3CCCCC3)n2)cc1` was 1.6 nM.
Regarding `CCC(=O)Nc1ccc(Sc2nc(Nc3cc(C)n[nH]3)cc(N3CCN(CC)CC3)n2)cc1`, the Ki was below 1 nM.

The next data set concerns the target Glycogen synthase kinase-3 beta (Homo sapiens, UniProt P49841).
Conditions: not given
Turning to `Cc1cc(Nc2nc(-c3ccncc3)nc3ccccc23)n[nH]1`, the inhibition constant Ki stood at 73 nM.

For the next data set, the system named is COLO 205. The data set is described as follows: Induction of apoptosis in human COLO205 cells by TUNEL staining. The class given is functional, cell-based.
Conditions: not given
Take `CC(=O)Nc1ccc(Sc2nc(Nc3cc(C)n[nH]3)c3ccccc3n2)cc1`: the outcome was Active.

Another data set deals with Proto-oncogene tyrosine-protein kinase Src (Homo sapiens, UniProt P12931). As to the kind of experiment: Inhibition of Src.
Chain of Proto-oncogene tyrosine-protein kinase Src (P12931 2-536 limits assumed): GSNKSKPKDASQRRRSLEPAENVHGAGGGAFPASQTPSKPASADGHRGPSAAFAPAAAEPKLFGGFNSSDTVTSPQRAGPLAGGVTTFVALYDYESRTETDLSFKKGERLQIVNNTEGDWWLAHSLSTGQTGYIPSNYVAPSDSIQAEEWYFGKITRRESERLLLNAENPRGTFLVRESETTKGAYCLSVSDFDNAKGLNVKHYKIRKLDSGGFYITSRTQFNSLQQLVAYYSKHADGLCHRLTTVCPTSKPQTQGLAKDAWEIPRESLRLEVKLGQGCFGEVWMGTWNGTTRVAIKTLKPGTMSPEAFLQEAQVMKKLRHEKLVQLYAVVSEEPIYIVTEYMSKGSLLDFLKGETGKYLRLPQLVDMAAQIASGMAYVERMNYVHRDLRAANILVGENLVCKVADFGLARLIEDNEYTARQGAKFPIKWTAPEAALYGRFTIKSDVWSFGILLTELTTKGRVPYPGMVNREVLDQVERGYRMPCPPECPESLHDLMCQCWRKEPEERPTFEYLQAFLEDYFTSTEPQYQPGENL
Conditions: not given
For `Cc1cc(Nc2nc(-c3ccncc3)nc3ccccc23)n[nH]1`, affinity was put at a Ki of 181 nM.
On the same count and under the same terms, the value for `Cc1cc(Nc2nc(Sc3ccc(Cl)c(Cl)c3)nc3ccccc23)n[nH]1` was above 38 nM; that for `COc1ccccc1Sc1nc(Nc2cc(C)[nH]n2)c2ccccc2n1` was above 1000 nM.

For another data set, the target named is Aurora kinase B (Homo sapiens, UniProt Q96GD4). As to the kind of experiment: Inhibition of Aurora-B.
Chain of Aurora kinase B (Q96GD4 whole entry): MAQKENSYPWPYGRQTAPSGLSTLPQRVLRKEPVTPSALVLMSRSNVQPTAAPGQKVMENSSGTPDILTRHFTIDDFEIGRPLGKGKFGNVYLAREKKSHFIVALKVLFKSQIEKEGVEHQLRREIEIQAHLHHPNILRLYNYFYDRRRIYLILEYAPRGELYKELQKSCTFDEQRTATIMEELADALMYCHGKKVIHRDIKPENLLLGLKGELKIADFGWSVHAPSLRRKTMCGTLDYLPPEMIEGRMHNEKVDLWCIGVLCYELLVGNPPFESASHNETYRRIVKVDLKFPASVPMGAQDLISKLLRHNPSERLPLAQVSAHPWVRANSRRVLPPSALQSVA
Conditions: not given
In the case of `Cc1cc(Nc2nc(Sc3ccc(Cl)cc3)nc3ccccc23)n[nH]1`, the Ki is above 1100 nM.
Still for that read-out and setting: with `CCC(=O)Nc1ccc(Sc2nc(Nc3cc(C)n[nH]3)cc(N3CCN(C4CC4)CC3)n2)cc1` the figure was 9.5 nM; with `Cc1cc(Nc2nc(Sc3ccc(Cl)cc3Cl)nc3ccccc23)n[nH]1`, above 1100 nM.
In the case of `COc1ccc(Sc2nc(Nc3cc(C)[nH]n3)c3ccccc3n2)cc1OC`, affinity was put at a Ki of 120 nM.
On the same count and under the same terms, the value for `Cc1cc(Nc2nc(Sc3ccccc3)nc3ccccc23)n[nH]1` was 590 nM; that for `CC(=O)Nc1ccc(Sc2nc(Nc3cc(C)[nH]n3)cc(-c3ccccc3)n2)cc1` was 83 nM; that for `CCC(=O)Nc1ccc(Sc2nc(Nc3cc(C)n[nH]3)cc(N3CCOCC3)n2)cc1` was 14 nM.
As to `Cc1cc(Nc2nc(Sc3ccc(Cl)c(Cl)c3)nc3ccccc23)n[nH]1`, the inhibition constant Ki was above 40 nM.
On the same count and under the same terms, the value for `CCC(=O)Nc1ccc(Sc2nc(Nc3cc(C)n[nH]3)cc(N3CCNCC3)n2)cc1` was 18 nM; that for `Cc1cc(Nc2nc(Sc3c(Cl)cccc3Cl)nc3ccccc23)n[nH]1` was above 1100 nM; that for `CCC(=O)Nc1ccc(Sc2nc(Nc3cc(C)[nH]n3)cc(N3CCN(C)CC3)n2)cc1` was 20 nM.
In the case of `Cc1cc(Nc2nc(Sc3ccccc3Cl)nc3ccccc23)n[nH]1`, the Ki worked out at 445 nM.
On the same count and under the same terms, with `CCC(=O)Nc1ccc(Sc2nc(Nc3cc(C)n[nH]3)cc(N3CCCCC3)n2)cc1` the figure was 8 nM; with `Cc1cc(Nc2nc(Sc3cccc(Cl)c3Cl)nc3ccccc23)n[nH]1`, 675 nM; with `COc1ccc(Sc2nc(Nc3cc(C)[nH]n3)c3ccccc3n2)cc1`, 575 nM.
Still for that read-out and setting: with `COc1ccccc1Sc1nc(Nc2cc(C)[nH]n2)c2ccccc2n1` the figure was 995 nM.
On the same count and under the same terms, with `Cc1cc(Nc2nc(Sc3cccc(Cl)c3)nc3ccccc23)n[nH]1` the figure was 185 nM; with `CCC(=O)Nc1ccc(Sc2nc(Nc3cc(C)n[nH]3)cc(N3CCN(CC)CC3)n2)cc1`, 25 nM.

The next data set deals with COLO 205. The data set is described as follows: Induction of apoptosis in human COLO205 cells assessed as DNA fragmentation by ELISA. It counts as functional, cell-based.
Conditions: not given
(An ELISA detects its analyte on a solid surface through an enzyme-linked reagent.)
Turning to `CC(=O)Nc1ccc(Sc2nc(Nc3cc(C)n[nH]3)c3ccccc3n2)cc1`, the outcome was Active.

System in another data set: not listed separately
As to the kind of experiment: Aqueous solubility at pH 7.4. Conditions: buffer. It counts as physicochemical.
The term solubility denotes how much of the substance goes into solution per volume. Low readings indicate little dissolved substance, high ones much dissolved substance. Turning to `CCC(=O)Nc1ccc(Sc2nc(Nc3cc(C)n[nH]3)cc(N3CCN(C4CC4)CC3)n2)cc1`, the concentration in solution (solubility) came to 12.8 µg/mL (≈ 26.7 µM).
Same read-out and setting: the value for `CCC(=O)Nc1ccc(Sc2nc(Nc3cc(C)n[nH]3)cc(N3CCOCC3)n2)cc1` was 5.4 µg/mL (≈ 12.3 µM).
Same read-out and setting: with `Cc1cc(Nc2cc(N3CCN(C)CC3)nc(Sc3ccc(NC(=O)C4CC4)cc3)n2)[nH]n1` [TOZASERTIB] the figure was 6.8 µg/mL (≈ 14.6 µM); with `CCC(=O)Nc1ccc(Sc2nc(Nc3cc(C)n[nH]3)cc(N3CCNCC3)n2)cc1`, 296 µg/mL (≈ 675 µM); with `CCC(=O)Nc1ccc(Sc2nc(Nc3cc(C)[nH]n3)cc(N3CCN(C)CC3)n2)cc1`, 63.4 µg/mL (≈ 140 µM).
The same measure, in the same setting: with `CCC(=O)Nc1ccc(Sc2nc(Nc3cc(C)n[nH]3)cc(N3CCN(CC)CC3)n2)cc1` the figure was 114 µg/mL (≈ 245 µM).

System in a further data set: not listed separately
As to the kind of experiment: Half life in rat. It counts as ADME, organism-based. The note with it: in vivo.
Usually half-life stands for how long it takes for the measured level to halve. Lower therefore signals fast loss. Compound `CC(=O)Nc1ccc(Sc2nc(Nc3cc(C)[nH]n3)c3ccccc3n2)cc1` had a half-life of 1.5 h.

The next data set relates to MCF7. The data set is described as follows: Antitumor activity against human MCF7 cells xenograft model assessed as tumor growth inhibition at 300 mg/kg, po bid. Conditions: read-out: GI. It counts as functional. (Xenograft models place foreign cells or tissue in a host animal.)
For `CC(=O)Nc1ccc(Sc2nc(Nc3cc(C)n[nH]3)c3ccccc3n2)cc1`, the inhibition in vivo at 300 mg/kg was 50%.
